Toxic doses and inconclusive results are not listed. No stated cut-off is given here; in the data, active means T/C of 150% or more; inactive means T/C below 125%. Peptide text beside a SMILES is read from it. * marks the point of attachment. Cbz = O=C(OCc1ccccc1)*; OtBu = CC(C)(C)O*
Test system: L1210 leukemia ip in BDF1 mice, survival T/C
Test: NCI In Vivo Anticancer Drug Screen. Data for tumor model L1210 Leukemia (intraperitoneal) in B6D2F1 (BDF1) mice
Details: endpoint: mean survival time, higher = longer survival
Method in brief: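 Value reflects the ratio of survival in compound-treated mice to survival in vehicle-treated controls, with both groups carrying the same transplanted tumor.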

[1] = dose: 100.0 mg/kg/injection, schedule: Q04DX002 (ip), vehicle: saline with Tween-80
[2] = dose: 200.0 mg/kg/injection, schedule: Q04DX002 (ip), vehicle: saline with Tween-80
[3] = dose: 50.0 mg/kg/injection, schedule: Q01DX001 (ip), vehicle: carboxymethylcellulose (CMC)
[4] = dose: 100.0 mg/kg/injection, schedule: Q01DX001 (ip), vehicle: carboxymethylcellulose (CMC)
[5] = dose: 200.0 mg/kg/injection, schedule: Q01DX001 (ip), vehicle: carboxymethylcellulose (CMC)
[6] = dose: 400.0 mg/kg/injection, schedule: Q01DX001 (ip), vehicle: carboxymethylcellulose (CMC)
[7] = dose: 100.0 mg/kg/injection, schedule: Q01DX001 (ip), vehicle: saline
[8] = dose: 200.0 mg/kg/injection, schedule: Q01DX001 (ip), vehicle: saline

Measured: T/C

C=C(C)C1(O)C=CC(=O)O1 (configuration not stated)
inactive: dose: 12.5 mg/kg/injection, schedule: Q01DX009 (ip), vehicle: saline 102 % of control | dose: 25.0 mg/kg/injection, schedule: Q01DX009 (ip), vehicle: saline 100 % of control | dose: 50.0 mg/kg/injection, schedule: Q01DX009 (ip), vehicle: saline 107 % of control

CCC[CH2][Sn]1([CH2]CCC)[O]OC2([O]1)C1CC3CC(C1)CC2C3 (configuration not stated)
inactive: dose: 3.0 mg/kg/injection, schedule: Q04DX002 (ip), vehicle: Klucel (hydroxypropylcellulose) (HPC) 90 % of control | dose: 6.0 mg/kg/injection, schedule: Q04DX002 (ip), vehicle: Klucel (hydroxypropylcellulose) (HPC) 108 % of control | dose: 12.0 mg/kg/injection, schedule: Q04DX002 (ip), vehicle: Klucel (hydroxypropylcellulose) (HPC) 108 % of control | dose: 12.5 mg/kg/injection, schedule: Q04DX002 (ip), vehicle: Klucel (hydroxypropylcellulose) (HPC) 101 % of control

O=C(Nc1ccc(Cl)cc1)C(c1ccccc1)c1ccccc1
inactive: [1] 100 % of control | [2] 110 % of control | dose: 400.0 mg/kg/injection, schedule: Q04DX002 (ip), vehicle: saline with Tween-80 100 % of control

O=C1CC(N2CCCCC2)C(=O)N1c1ccccc1 (configuration not stated)
inactive: [1] 92 % of control | [2] 95 % of control

N/C(=N/N=C/c1cc(Cl)ccc1O)N/N=C\c1cc(Cl)ccc1O
inactive: dose: 15.0 mg/kg/injection, schedule: Q01DX Z (ip), vehicle: methylcellulose (MC) 107 % of control | dose: 30.0 mg/kg/injection, schedule: Q01DX Z (ip), vehicle: methylcellulose (MC) 104 % of control | dose: 60.0 mg/kg/injection, schedule: Q01DX Z (ip), vehicle: methylcellulose (MC) 119 % of control | dose: 60.0 mg/kg/injection, schedule: Q01DX Z (oral), vehicle: methylcellulose (MC) 94 % of control | dose: 120.0 mg/kg/injection, schedule: Q01DX Z (ip), vehicle: methylcellulose (MC) 108 % of control | dose: 120.0 mg/kg/injection, schedule: Q01DX Z (oral), vehicle: methylcellulose (MC) 93 % of control | dose: 240.0 mg/kg/injection, schedule: Q01DX Z (oral), vehicle: methylcellulose (MC) 100 % of control

CC1(C)N=C(c2ccccc2)C2C(c3ccc([N+](=O)[O-])cc3)N21 (configuration not stated)
inactive: [3] 98 % of control | [4] 88 % of control | [5] 93 % of control | [6] 91 % of control

CCCCCCN(CCCCCC)CC(=O)Nc1ccc(S(=O)(=O)c2ccc(NC(=O)CN(CCCCCC)CCCCCC)cc2)cc1
inactive: dose: 25.0 mg/kg/injection, schedule: Q01DX001 (ip), vehicle: carboxymethylcellulose (CMC) 114 % of control | [3] 97 % of control

NNC(=O)CCc1ccccc1O
inactive: dose: 100.0 mg/kg/injection, schedule: Q01DX009 (ip), vehicle: saline with Tween-80 93 % of control | dose: 200.0 mg/kg/injection, schedule: Q01DX009 (ip), vehicle: saline with Tween-80 91 % of control | dose: 400.0 mg/kg/injection, schedule: Q01DX009 (ip), vehicle: saline with Tween-80 93 % of control

COC(=O)C(CCC(=O)OC(C)(C)C)NC(=O)C(CCC(=O)OC(C)(C)C)NC(=O)OCc1ccccc1 (configuration not stated) (Cbz-Glu(OtBu)-Glu(OtBu)-OMe; configuration not given here)
inactive: dose: 100.0 mg/kg/injection, schedule: Q04DX003 (ip), vehicle: Klucel (hydroxypropylcellulose) (HPC) 100 % of control | dose: 200.0 mg/kg/injection, schedule: Q04DX003 (ip), vehicle: Klucel (hydroxypropylcellulose) (HPC) 99 % of control | dose: 400.0 mg/kg/injection, schedule: Q04DX003 (ip), vehicle: Klucel (hydroxypropylcellulose) (HPC) 103 % of control

CCOC(=O)Nc1ccc2c(c1)/C(=N\NC(N)=S)c1ccccc1-2
inactive: [3] 94 % of control | dose: 50.0 mg/kg/injection, schedule: Q04DX003 (ip), vehicle: saline 86 % of control | dose: 75.0 mg/kg/injection, schedule: Q01DX009 (ip), vehicle: saline with Tween-80 101 % of control | [4] 102 % of control | [7] 93 % of control | dose: 100.0 mg/kg/injection, schedule: Q04DX003 (ip), vehicle: saline 92 % of control | dose: 150.0 mg/kg/injection, schedule: Q01DX009 (ip), vehicle: saline with Tween-80 113 % of control | [5] 105 % of control | [8] 96 % of control | dose: 200.0 mg/kg/injection, schedule: Q04DX003 (ip), vehicle: saline 100 % of control | [6] 100 % of control

COc1ccc(N=Cc2ccccc2O)cc1
inactive: dose: 100.0 mg/kg/injection, schedule: Q04DX003 (ip), vehicle: other 100 % of control | dose: 200.0 mg/kg/injection, schedule: Q04DX003 (ip), vehicle: other 96 % of control | dose: 400.0 mg/kg/injection, schedule: Q04DX003 (ip), vehicle: other 98 % of control

CN(C)c1ccc(-c2cc(NS(=O)(=O)c3ccccc3)ccc2NS(=O)(=O)c2ccccc2)cc1
inactive: dose: 100.0 mg/kg/injection, schedule: Q01DX001 (ip), vehicle: Klucel (hydroxypropylcellulose) (HPC) 96 % of control | dose: 200.0 mg/kg/injection, schedule: Q01DX001 (ip), vehicle: Klucel (hydroxypropylcellulose) (HPC) 94 % of control | dose: 400.0 mg/kg/injection, schedule: Q01DX001 (ip), vehicle: Klucel (hydroxypropylcellulose) (HPC) 96 % of control

COc1ccc(Nc2ccc([N+](=O)[O-])cc2[N+](=O)[O-])cc1
inactive: dose: 100.0 mg/kg/injection, schedule: Q04DX003 (ip), vehicle: saline with Tween-80 96 % of control | dose: 200.0 mg/kg/injection, schedule: Q04DX003 (ip), vehicle: saline with Tween-80 94 % of control | dose: 400.0 mg/kg/injection, schedule: Q04DX003 (ip), vehicle: saline with Tween-80 91 % of control

C/C=C\C(O)(C(=O)OC)c1ccccc1 (configuration not stated)
inactive: dose: 100.0 mg/kg/injection, schedule: Q01DX001 (ip), vehicle: other 105 % of control | [7] 97 % of control | dose: 200.0 mg/kg/injection, schedule: Q01DX001 (ip), vehicle: other 107 % of control | [8] 92 % of control | dose: 400.0 mg/kg/injection, schedule: Q01DX001 (ip), vehicle: other 107 % of control | dose: 400.0 mg/kg/injection, schedule: Q01DX001 (ip), vehicle: saline 92 % of control
